The values below are quoted from earlier work in US11236258B2, “Aqueous based dust control compositions and methods” (Trican Well Service Ltd, priority 2018, dated 2022).

The conditions of series [1]: within 14 days.

As for `C[N+](C)(C)CCO` [CHO, choline], the solubility in water was 3.61 mg/mL.

In the case of `C[N+](C)(C)CCO.[Cl-]` [Choline chloride, choline chloride], the “measured solubility in water” value is 650 g/L. The “biodegradation, degradation” value in series [1] is 93%.

On to `C[N+](C)(C)CCOP(=O)(O)OCC(O)CO` (stereo not shown) [GPC, glycerophosphocholine], for which the solubility in water was 4.04 mg/mL.
